Experimental findings from paper PMC6934184, “Selective DNA-PKcs inhibition extends the therapeutic index of localized radiotherapy and chemotherapy” (The Journal of Clinical Investigation, 2019) are described below.

Broadly, the inhibition is the change of the read-out against control, counted positive when it falls.

The assay addresses T1, TAOK2 (TAO1) (Homo sapiens, UniProt Q9UL54).
T1 construct: purchased Thermo Fisher Scientific (Life Technologies) SelectScreen
Briefly: SelectScreen Z'LYTE. Type of assay: biochemical. Summed up: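 SelectScreen broad panel; activity (Z'LYTE, Adapta) plus binding formats. ATP: Km app for CSF1R Z'LYTE; 10 for CAMK1 Adapta. Readout = % per kinase.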

T1 sequence (Q9UL54 whole entry): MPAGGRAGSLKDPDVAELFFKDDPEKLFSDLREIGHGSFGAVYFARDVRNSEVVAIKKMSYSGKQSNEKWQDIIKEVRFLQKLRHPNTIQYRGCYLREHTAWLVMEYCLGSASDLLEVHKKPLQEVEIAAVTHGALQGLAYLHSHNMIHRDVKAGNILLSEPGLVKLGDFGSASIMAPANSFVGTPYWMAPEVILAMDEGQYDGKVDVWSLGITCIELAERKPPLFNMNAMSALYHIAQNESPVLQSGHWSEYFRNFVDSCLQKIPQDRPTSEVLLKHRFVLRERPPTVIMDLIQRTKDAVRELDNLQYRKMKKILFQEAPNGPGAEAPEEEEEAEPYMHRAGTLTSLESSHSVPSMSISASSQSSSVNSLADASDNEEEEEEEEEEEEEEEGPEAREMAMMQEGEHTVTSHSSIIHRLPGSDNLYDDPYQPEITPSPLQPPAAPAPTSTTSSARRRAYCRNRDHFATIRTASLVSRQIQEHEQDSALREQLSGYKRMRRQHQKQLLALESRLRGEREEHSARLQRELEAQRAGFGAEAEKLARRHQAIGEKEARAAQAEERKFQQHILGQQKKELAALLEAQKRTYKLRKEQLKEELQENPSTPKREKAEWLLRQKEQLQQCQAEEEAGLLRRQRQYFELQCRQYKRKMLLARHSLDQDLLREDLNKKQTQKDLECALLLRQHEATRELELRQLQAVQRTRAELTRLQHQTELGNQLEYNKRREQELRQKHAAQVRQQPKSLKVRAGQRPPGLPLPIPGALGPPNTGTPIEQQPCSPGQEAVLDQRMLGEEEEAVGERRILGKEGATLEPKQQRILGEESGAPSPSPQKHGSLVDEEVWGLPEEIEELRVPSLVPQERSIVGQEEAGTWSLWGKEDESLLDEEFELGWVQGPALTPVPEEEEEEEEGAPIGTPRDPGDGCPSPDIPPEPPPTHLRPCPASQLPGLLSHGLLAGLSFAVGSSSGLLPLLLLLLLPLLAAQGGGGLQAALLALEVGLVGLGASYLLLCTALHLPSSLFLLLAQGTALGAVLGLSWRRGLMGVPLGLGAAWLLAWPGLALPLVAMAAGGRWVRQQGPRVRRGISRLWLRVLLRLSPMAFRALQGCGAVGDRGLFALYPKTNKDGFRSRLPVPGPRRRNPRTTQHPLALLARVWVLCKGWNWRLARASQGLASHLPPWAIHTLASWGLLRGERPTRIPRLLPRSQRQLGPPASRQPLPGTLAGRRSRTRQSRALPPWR

For `CN(C(=O)CN1CCOCC1)c1ccc2sc3c(-c4cccc5c(=O)cc(N6CC7CCC(C6)O7)oc45)cccc3c2c1` [NU5455], the inhibition at 1 µM was -5.1%.
